According to patent US8809539B2, “Dicarboxylic acid derivatives as S1P1 receptor agonists” (Bioprojet, priority 2007, dated 2014):
Values belong to the compound of their own block, whether it stands above or below them.

Columns and labels:
[1] = target: T1, Edg1 (S1P1 receptor) (Homo sapiens, UniProt P21453); assay: GTP-γ-35S binding, agonist activity at Edg1 (S1P1); format: biochemical; details: membranes of transfected HEK 293 or CHOK1 cells, [35S]GTP-γ-S; read-out: In-Vitro potency EC50 (nM) Edg1
T1 construct: expressed in transfected cells; host or cells: HEK 293 or CHOK1 (membranes)
T1 sequence (P21453 whole entry): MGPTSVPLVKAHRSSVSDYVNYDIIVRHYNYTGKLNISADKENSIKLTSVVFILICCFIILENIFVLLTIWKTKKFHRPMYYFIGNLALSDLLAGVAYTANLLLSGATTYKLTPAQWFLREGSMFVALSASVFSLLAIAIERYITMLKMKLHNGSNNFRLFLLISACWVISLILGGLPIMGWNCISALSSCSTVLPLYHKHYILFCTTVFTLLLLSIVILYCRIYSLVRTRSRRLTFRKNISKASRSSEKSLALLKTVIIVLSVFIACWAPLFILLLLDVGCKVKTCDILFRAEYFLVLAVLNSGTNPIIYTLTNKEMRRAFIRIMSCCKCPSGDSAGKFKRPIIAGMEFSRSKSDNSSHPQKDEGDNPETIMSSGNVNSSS
Excerpt: Human S1P1-5 receptor subtypes were stably expressed in high levels in HEK 293 or CHOK1 cells following transfection with corresponding plasmid constructs. Although the native cells somewhat respond to S1P, the level of expression and responsiveness of the antibiotic-resistant transfected cell lines that were selected is much higher.
When cultivated cells reached 80% confluence, they were collected and, after lysis, cell membranes were collected by centrifugation and washed in buffer containing antiproteases.
GTP-γ-^35S binding was performed using ˜5 μg protein of cell membranes suspended in 50 mM tris-HCl pH 7.5 containing 10 mM MgCl2, 100 mM NaCl and 10 μM GDP. The radioligand was 0.025 nM [^35S] GTP-γ-S and non specific binding determined in the presence of 10 μM non-radioactive GTP-γ-S. S1P and receptor agonists enhance the specific binding whereas inverse agonists reduce it. The maximal stimulation elicited by S1P was taken as a reference to define full or partial agonism and calculate the intrinsic activity (i.a.) of compounds.

[2] = tested on: blood lymphocytes (S1P1 receptors in vivo); assay: Lymphopenia in vivo after oral administration; details: Swiss mice; for ED50: Mus musculus, Lymphocyte, at 24 h
Method: Lymphopenia was assessed in vivo. Experiments were done in Swiss mice strain (n=5 per condition). Compounds were administered orally in suspension in methyl-cellulose 1% from 1 h 30 until 48 hours before the experiments. Blood was taken on anesthetized animal (4% isoflurane) and samples collected in EDTA-containing vacuum tubes. After 5 minutes stirring, cells were counted using ABC vet hemocytometer (Scil vet animal Care)

[3] = target: T2, Edg3 (S1P3 receptor) (Homo sapiens, UniProt Q99500); assay: GTP-γ-35S binding, agonist activity at Edg3 (S1P3); format: biochemical; details: membranes of transfected HEK 293 or CHOK1 cells, [35S]GTP-γ-S; read-out: In-Vitro potency EC50 (nM) Edg3
T2 construct: expressed in transfected cells; host or cells: HEK 293 or CHOK1 (membranes)
T2 sequence (Q99500 whole entry): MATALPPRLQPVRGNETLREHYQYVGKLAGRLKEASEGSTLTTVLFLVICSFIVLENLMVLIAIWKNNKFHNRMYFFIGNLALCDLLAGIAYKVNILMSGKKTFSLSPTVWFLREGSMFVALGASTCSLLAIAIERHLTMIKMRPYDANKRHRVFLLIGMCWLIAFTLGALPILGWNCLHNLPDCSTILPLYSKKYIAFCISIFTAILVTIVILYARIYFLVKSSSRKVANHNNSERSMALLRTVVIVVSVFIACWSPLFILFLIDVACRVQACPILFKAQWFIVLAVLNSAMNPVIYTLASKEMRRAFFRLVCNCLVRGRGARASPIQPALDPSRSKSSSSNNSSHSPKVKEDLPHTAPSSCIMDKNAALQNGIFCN
Excerpt: (§1) Human S1P1-5 receptor subtypes were stably expressed in high levels in HEK 293 or CHOK1 cells following transfection with corresponding plasmid constructs. Although the native cells somewhat respond to S1P, the level of expression and responsiveness of the antibiotic-resistant transfected cell lines that were selected is much higher. When cultivated cells reached 80% confluence, they were collected and, after lysis, cell membranes were collected by centrifugation and washed in buffer containing antiproteases. GTP-γ-^35S binding was performed using ˜5 μg protein of cell membranes suspended in 50 mM tris-HCl pH 7.5 containing 10 mM MgCl2, 100 mM NaCl and 10 μM GDP. The radioligand was 0.025 nM [^35S] GTP-γ-S and non specific binding determined in the presence of 10 μM non-radioactive GTP-γ-S. S1P and receptor agonists enhance the specific binding whereas inverse agonists reduce it. The maximal stimulation elicited by S1P was taken as a reference to define full or partial agonism and calculate the intrinsic activity (i.a.) of compounds.

[4] = target: T3, Edg5 (Homo sapiens, UniProt O95136); assay: GTP-γ-35S binding, agonist activity at Edg5; format: biochemical; details: membranes of transfected HEK 293 or CHOK1 cells, [35S]GTP-γ-S; read-out: In-Vitro potency EC50 (nM) Edg5
T3 construct: expressed in transfected cells; host or cells: HEK 293 or CHOK1 (membranes)
T3 sequence (O95136 whole entry): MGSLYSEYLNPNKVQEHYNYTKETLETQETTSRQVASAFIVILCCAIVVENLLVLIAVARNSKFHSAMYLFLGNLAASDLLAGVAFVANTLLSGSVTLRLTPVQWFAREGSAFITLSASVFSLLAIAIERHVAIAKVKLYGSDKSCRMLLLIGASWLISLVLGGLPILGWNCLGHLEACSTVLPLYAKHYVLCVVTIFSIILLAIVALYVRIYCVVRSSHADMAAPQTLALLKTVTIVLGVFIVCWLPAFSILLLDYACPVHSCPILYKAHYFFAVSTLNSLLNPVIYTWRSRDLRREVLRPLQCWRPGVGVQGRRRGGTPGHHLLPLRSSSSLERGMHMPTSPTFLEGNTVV
Excerpt: as §1

SMILES: COC(=O)C1(C(=O)O)CC(N(C)Cc2ccc(-c3noc(-c4ccc(CC(C)C)cc4)n3)cc2)C1 (single isomer, unassigned) [Example 54]
- EC50 [1]: 11.8 nM

SMILES: COC(=O)C1(C(=O)O)CCN(Cc2ccc(-c3noc(-c4ccc(CC(C)C)cc4)n3)cc2)CC1 [Example 8]
- ED50 [2]: 3.5 mg/kg

SMILES: Cl.O=C(O)C1(C(=O)O)CC(NCc2ccc(-c3noc(-c4ccc(-c5ccccc5)c(F)c4)n3)cc2)C1 [Example 49]
- % lymphopenia ([2]; at 10 mg/kg, after 24 h): at 10 mg/kg 86% lymphopenia after 24 h

SMILES: CC(C)(C)C(=O)COC(=O)C1(C(=O)O)CCN(Cc2ccc(-c3noc(-c4ccc(-c5ccccc5)c(F)c4)n3)cc2)CC1 [Example 62, 1-{4-[5-(2-fluorobiphenyl-4-yl)[1,2,4]oxadiazol-3-yl]benzyl}-piperidine-4,4-dicarboxylic acid (3,3-dimethyl-2-oxobutyl)ester]
- ED50 [2]: 0.03 mg/kg
- EC50 [1]: 6.3 nM

Continued by falling EC50 [1], values first:

- EC50 [1]: 2.2 nM
- EC50 [3]: > 1000 nM
- EC50 [4]: > 1000 nM
SMILES: CO/N=C(/c1ccco1)c1nc(-c2ccc(CN3CCC(C(=O)O)(C(=O)O)CC3)cc2)no1 [Example 22]

- EC50 [1]: 1.7 nM
SMILES: C=C(C)[C@@H]1CC=C(c2nc(-c3ccc(CN4CCC(C(=O)O)(C(=O)O)CC4)cc3)no2)CC1 [Example 25]

- EC50 [1]: 0.7 nM
- EC50 [3]: > 1000 nM
- EC50 [4]: > 1000 nM
SMILES: O=C(O)C1(C(=O)O)CCN(Cc2ccc(-c3noc(-c4ccc(-c5ccccc5)cc4)n3)cc2)CC1 [Example 15]
